Consider two compounds from patent US9902709B2, “Polysubstituted pyridine compound, preparation method, use and pharmaceutical composition” (PEKING UNIVERSITY FOUNDER GROUP CO., LTD., priority 2014, dated 2018).

For experiment [1], the system named is human colon cancer HCT-116 transplantation. The experiment can be described thus: Effect on tumor weight of human colon cancer HCT-116 transplantation nude mice (Comparative Experiment Example 2). Type of experiment: in vivo. The following applies: QD × 17 day. An excerpt: Comparative Experiment Example 2
Under aseptic conditions, the well grown human HCT-116 cell suspension in logarithmic growth phase was used to inoculate nude mouse at axillary cavity of right forelimb subcutaneously via an injector. The tumor growth state was observed regularly until the tumor grew to a volume of 100˜300 mm^3.
48 Tumor-bearing mice with a tumor volume of 100˜300 mm^3 were selected and divided into 6 groups, which were 1 solvent control group, 3 positive control groups, and 2 test sample groups. Both the positive control group and the test sample group were administered intragastrically once a day; the solvent control group was administered with 12.5% ethanol & 12.5% water solution of polyoxyethylene castor oil once a day; intragastrical volume was 10 mL/kg.
(§1) In the period of administration, tumor diameter was measured twice every week, tumor volume was calculated, and animal body weight was recorded. Animal state was observed when administered, and abnormal state was recorded.
Animal was sacrificed with CO2, and tumor mass was peeled off, weighed, and photographed. After photographed, each tumor mass was cut into two parts, wherein one was stored in 4% paraformaldehyde, and the other was packaged into a freezing tube, and frozen in liquid nitrogen. Animal was subjected to gross anatomy, and organs were observed by eyes to find if they were normal or not.
(§2) Observation Indexes: Tumor weight inhibiting rate (IR)=(WC−WT)/WC
wherein WC and WT represented the average tumor weight of solvent control group and the average tumor weight of drug administration group, respectively.
Experimental data was subjected to calculation and relevant statistic processing by Microsoft Office Excel 2003 software. Unless otherwise specified, data was represented as Mean±Standard Error (Mean±S.E.), and t-test is used in the comparison between two groups.

Another experiment has as its target VEGFR2 (Homo sapiens (Human), UniProt P35968). The experiment can be described thus: Inhibitory activity of VEGFR2 kinase (HTRF KinEASE-TK kit). Type of experiment: biochemical. The following applies: ATP 5 μM, 20 minutes, room temperature. The method, then: HTRF®KinEASE™-TK kit (Cat.62TKOPEC, Cisbio);
VEGFR2 (Cat: k2643, Sigma);
2.1 Preparation of VEGFR2 Kinase Reagent
1× kinase buffer: 1 mL 1× kinase buffer contained 200 μL 5× kinase buffer (Invitrogen), 5 μL, 1M MgCl2, 1 μL 1M DTT, 1 μL 1M MnCl2, and 793 μL ddH2O;
5×TK substrate-biotin and ATP working fluid: as the concentrations of TK substrate-biotin and ATP, please refer to Table 1. TK substrate-biotin and ATP were diluted with 1× kinase buffer to 5 folds of the reaction concentrations;
5× kinase working fluid: as the concentration of VEGFR2 kinase, please refer to Table 1. 5× kinase working fluid was prepared with 1× Kinase buffer;
4× Sa-XL665 working fluid: as the concentration of Sa-XL665 (Cisbio) in the reaction, please refer to Table 1. The 4× Sa-XL665 working fluid was prepared with assay buffer (Cisbio);
4×TK Ab-cryptate working fluid: TK Ab-Cryptate (Cisbio) was 100-fold diluted with assay buffer (Cisbio), as working fluid;
Experimental Procedure of HTRF KinEASE TK Kit
After all the reagents were prepared as described above, the reagents except for enzymes were equilibrated to room temperature, then adding samples were performed.
TK substrate-biotin, ATP, VEGFR2 kinase and a compound at a certain concentration were reacted in 1× kinase buffer at room temperature for 20 minutes. […] To all the reaction wells, 5 μl 4× Sa-XL665 working fluid and 5 μl 4×TK Ab-cryptate working fluid were added. After reacting at room temperature for 1 hours, fluorescence signal (excited at 320 nm, emitted at 665 nm, 615 nm) was detected by ENVISION detector (Perkinelmer). Based on the full-active well and the background signal well, the inhibition rate for each well was calculated, and the average value was used for duplicate wells. The half maximal inhibitory concentration (IC50) for each test compound was fitted by professional software Graphpad PRISM 5.0.
2.3 Data Analysis Emission light ratio (ER)=665 nm emission signal/615 nm emission signal Inhibition rate=(ERpositive−ERsample)/(ERpositive−ERnegative)*100%
HTRF KinEASE TK kit was used to determine the IC50 value of a compound for kinase VEGFR2. The final concentration of the compound started from 100 μM, and 4-fold gradient dilution was carried out to provide 10 concentrations. Duplicate wells were used for each concentration. The final concentration of DMSO was controlled to 1% in the reaction system.

Experiment [2] relates to human renal cancer 786-O transplantation. Nature of the experiment: Effect on tumor weight of human renal cancer 786-O transplantation nude mice (Comparative Experimental Example 1). In kind it is in vivo. The following applies: QD × 14 days.
Description: Comparative Experimental Example 1
The well grown 786-O solid tumor was cut into a mass of an average volume of about 1 mm^3 under aseptic conditions, and was used to inoculate nude mouse at axillary cavity of right forelimb subcutaneously via a trocar. The tumor growth state was observed regularly until the tumor grew into a volume of 250˜550 mm^3.
Animals with tumors of a too large or too small volume and an irregular shape were discarded. Tumor-bearing mice with a tumor volume of 250˜550 mm^3 in a good state were selected, 48 mice in total, and were divided into 6 groups, which were 1 solvent control group, 3 positive control groups, and 2 test sample groups. Both the positive control group and the test sample group were administered intragastrically once a day; the solvent control group was administered with 12.5% ethanol & 12.5% water solution of polyoxyethylene castor oil once a day; intragastrical volume was 10 mL/kg.
as §1
Animal was sacrificed with CO2, and tumor was peeled off, weighed, and photographed. Animal was subjected to gross anatomy, and organs were observed by eyes to find if they were normal or not.
as §2
Wherein WC and WT represented the average tumor weight of solvent control group and the average tumor weight of drug administration group, respectively.
Experimental data was subjected to calculation and relevant statistic processing by Microsoft Office Excel 2003 software. Unless otherwise specified, data was represented as Mean±Standard Error (Mean±S.E), and t-test is used in the comparison between two groups.

Sequence of VEGFR2 (P35968 20-1356): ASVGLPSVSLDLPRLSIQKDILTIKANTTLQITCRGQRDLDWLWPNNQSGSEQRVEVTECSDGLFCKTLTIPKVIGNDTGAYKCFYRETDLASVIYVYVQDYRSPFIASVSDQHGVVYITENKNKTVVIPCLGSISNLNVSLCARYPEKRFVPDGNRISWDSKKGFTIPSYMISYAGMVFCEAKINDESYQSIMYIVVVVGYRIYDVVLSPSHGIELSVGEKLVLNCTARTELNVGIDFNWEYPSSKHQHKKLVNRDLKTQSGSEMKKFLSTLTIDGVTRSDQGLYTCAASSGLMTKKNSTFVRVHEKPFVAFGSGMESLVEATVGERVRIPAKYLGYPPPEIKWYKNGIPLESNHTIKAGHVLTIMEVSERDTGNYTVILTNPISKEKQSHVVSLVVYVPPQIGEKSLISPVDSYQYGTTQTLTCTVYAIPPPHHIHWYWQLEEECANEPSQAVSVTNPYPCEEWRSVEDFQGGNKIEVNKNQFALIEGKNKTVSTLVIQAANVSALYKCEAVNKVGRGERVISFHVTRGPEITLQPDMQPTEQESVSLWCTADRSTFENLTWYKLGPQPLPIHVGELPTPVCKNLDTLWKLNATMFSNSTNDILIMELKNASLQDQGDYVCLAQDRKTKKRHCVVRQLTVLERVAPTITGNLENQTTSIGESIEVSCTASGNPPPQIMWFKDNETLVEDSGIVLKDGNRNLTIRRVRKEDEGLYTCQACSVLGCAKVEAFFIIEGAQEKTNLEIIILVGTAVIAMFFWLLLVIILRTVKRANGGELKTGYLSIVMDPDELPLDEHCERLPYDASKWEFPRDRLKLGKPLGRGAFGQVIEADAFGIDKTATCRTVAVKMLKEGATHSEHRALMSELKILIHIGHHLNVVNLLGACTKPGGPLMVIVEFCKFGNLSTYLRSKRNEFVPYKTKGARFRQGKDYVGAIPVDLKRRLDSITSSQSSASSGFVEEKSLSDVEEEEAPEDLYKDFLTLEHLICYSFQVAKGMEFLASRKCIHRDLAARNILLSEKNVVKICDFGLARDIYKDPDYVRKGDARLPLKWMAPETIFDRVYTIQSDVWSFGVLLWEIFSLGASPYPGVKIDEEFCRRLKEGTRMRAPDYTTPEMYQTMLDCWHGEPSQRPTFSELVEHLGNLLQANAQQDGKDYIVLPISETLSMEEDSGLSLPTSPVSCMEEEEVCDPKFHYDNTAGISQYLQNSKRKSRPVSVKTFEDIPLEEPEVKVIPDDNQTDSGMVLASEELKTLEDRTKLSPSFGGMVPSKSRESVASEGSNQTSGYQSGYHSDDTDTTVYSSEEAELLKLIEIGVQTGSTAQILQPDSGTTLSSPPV

As for `Cn1cc(-c2cc(Oc3ccc(NC(=O)Nc4ccc(Cl)c(C(F)(F)F)c4)cc3)ccn2)cn1` [Comparative example 2, 1-(4-chloro-3-(trifluoromethyl)phenyl)-3-(4-(2-(1-methyl-pyrazol-4-yl)-pyridin-4-yl-oxy)phenyl)urea], the “Tumor weight Mean ± S.E” value was determined as 0.3283 ± 0.0404 g in experiment [1] (20 mg/kg Ig, sorafenib as p-toluenesulfonate, FD-1210005 free form); 0.2829 ± 0.0309 g in experiment [1] (60 mg/kg Ig, sorafenib as p-toluenesulfonate, FD-1210005 free form); 0.1892 ± 0.0253 g in experiment [2] (20 mg/kg po, sorafenib as p-toluenesulfonate, FD-1210005 free form); 0.1897 ± 0.0192 g in experiment [2] (60 mg/kg po, sorafenib as p-toluenesulfonate, FD-1210005 free form). The Tumor-inhibiting rate came out at 67% in experiment [1] (20 mg/kg Ig, sorafenib as p-toluenesulfonate, FD-1210005 free form, listed as Comparative compound 2); 66.91% in experiment [1] (20 mg/kg Ig, sorafenib as p-toluenesulfonate, FD-1210005 free form, listed as FD-1210005); 71% in experiment [1] (60 mg/kg Ig, sorafenib as p-toluenesulfonate, FD-1210005 free form, listed as Comparative compound 2); 71.49% in experiment [1] (60 mg/kg Ig, sorafenib as p-toluenesulfonate, FD-1210005 free form, listed as FD-1210005); 80% in experiment [2] (20 mg/kg po, sorafenib as p-toluenesulfonate, FD-1210005 free form, listed as Comparative compound 2); 79.78% in experiment [2] (20 mg/kg po, sorafenib as p-toluenesulfonate, FD-1210005 free form, listed as FD-1210005). Besides, the Tumor-inhibiting rate in experiment [2] (60 mg/kg po, sorafenib as p-toluenesulfonate, FD-1210005 free form, listed as Comparative compound 2) was determined as 80%; in experiment [2] (60 mg/kg po, sorafenib as p-toluenesulfonate, FD-1210005 free form, listed as FD-1210005) it was 79.73%. Moreover, on VEGFR2, the IC50 worked out at 0.188 µM.
For `CCN(CC)CCNC(=O)c1c(C)[nH]c(/C=C2\C(=O)Nc3ccc(F)cc32)c1C` [Sunitinib], the figures for the “Tumor weight Mean ± S.E” value in experiment [1] (40 mg/kg Ig) and in experiment [2] (40 mg/kg po) were 0.3890 ± 0.0453 g and 0.1825 ± 0.0213 g, respectively. In addition, the Tumor-inhibiting rate in experiment [1] (40 mg/kg Ig) is reported as 60.80%; in experiment [2] (40 mg/kg po) it was 80.49%.
